Data: patent publication EP1351977B1, “ANTIMICROBIAL PSEUDOPEPTIDES” (INSTITUT NATIONAL DE LA RECHERCHE AGRONOMIQUE (INRA), priority 2001, dated 2004)
Where two headings read alike, the source gives them in different places. Ends that are not written are not given here.

Experiments:
Assay type in all cases: cell-based
Alternaria brassicae = test: Antifungal growth inhibition test in liquid medium
Botrytis cinerea sp = test: Antifungal growth inhibition test in liquid medium
Botrytis cinerea myc = test: Antifungal growth inhibition test in liquid medium
Cladosporium sp = test: Antifungal growth inhibition test in liquid medium
Cladosporium myc = test: Antifungal growth inhibition test in liquid medium
[1] = test system: Helminthosporium teres sp; test: Antifungal growth inhibition test in liquid medium
Rhizoctonia solani myc = test: Antifungal growth inhibition test in liquid medium
Fusarium culmorum sp = test: Antifungal growth inhibition test in liquid medium
From the text: (§1) Les composés des pics 5, 7 et 8 de la figure 1 ont été testées vis-à-vis d'un ensemble de champignons phytopathogènes. Trois doses (10, 20, et 40 ppm) ont été employées pour chacun des composés.
(§2) L'activité antifongique a été détectée par un test d'inhibition de croissance en milieu liquide. Les spores des champignons à tester ont été mises en suspension dans un milieu de culture de type "Pomme de terre-Glucose". De préférence, on utilise 12 g de milieu Potato Dextrose Broth (Difco) pour 1 litre d'eau déminéralisée. Deux antibiotiques ont été rajoutés au milieu de culture: la tétracycline (concentration finale de 10 µg/ml) et la céfotaxime (100 µg/ml). On dépose 10 µl de chaque composé à tester dans des plaques de microtitration en présence de 90 µl de milieu de culture contenant les spores (à une concentration finale de 10^4 spores/ml). L'incubation a été réalisée en chambre humide à 30°C durant 48 heures. La croissance fongique a été observée au microscope photonique après 24 h et quantifiée après 48 heures par mesure de l'absorbance à 600 nm à l'aide d'un spectrophotomètre lecteur de plaque de microtitration. L'activité des composés contre les champignons phytopathogènes est exprimée par un pourcentage d'inhibition de croissance correspondant à 100 x (1 - absorbance avec produit/ absorbance du témoin sans produit), l'absorbance étant mesurée à 600 nm, 5 jours après le début de l'expérience.

Phytophthora myc = test: Antifungal growth inhibition test in liquid medium
From the text: as §1, §2

Piricularia oryzae sp = test system: Piricularia oryzae sp
Septoria tritici sp = test: Antifungal growth inhibition test in liquid medium
Escherichia coli CIP548 = test: Bacterial growth inhibition test in Petri dish (solid medium), MIC; conditions: MIC extrapolated from inhibition diameter vs log10 concentration
Salmonella sp. = test: as above; conditions: MIC extrapolated from inhibition diameter vs log10 concentration
Protocol: Deux tests ont été utilisés pour mesurer l'activité antibactérienne des pseudopeptides, un test d'inhibition de la croissance bactérienne en microplaques (de 96 puits) en milieu liquide et un test d'inhibition de la croissance bactérienne en boîte de Pétri en milieu solide. • * Test en microplaques: La culture bactérienne à tester est prélevée en phase exponentielle, puis diluée au 1/500^ème dans du milieu liquide TSB frais. Chaque puits de la microplaque est rempli avec 100 µl de suspension bactérienne diluée. Dans le premier puits, 100 µl de l'échantillon de pseudopeptide à tester est ajouté à la suspension bactérienne, puis l'échantillon est dilué de 2 en 2 en transférant d'un puits à l'autre 100 µl de suspension. La lecture de la microplaque se fait en mesurant la densité optique à […] (DO600nm) après 24h d'incubation à 28°C ou 37°C selon les bactéries cibles. Connaissant la concentration en pseudopeptide de l'échantillon de départ, ce test permet de déterminer la valeur de la CMI (Concentration Minimale d'Inhibition de la croissance bactérienne). Dans ce test, la CMI correspond à la concentration de l'échantillon pour lequel la DO600nm est inférieure à celle du témoin de culture. • * Test en boîte de Pétri: La culture bactérienne à tester est prélevée en phase exponentielle, puis incorporée à 10 ml d'une gélose dite "sous-couche" (Agarose 1% poids/vol; NaCl 100 mM; Trypcase 0.03 % poids/vol; Tampon phosphate 10 mM pH7.4) à raison de 2.10^5 bactéries/ml. Le mélange est coulé dans une boîte de Pétri ordinaire. 9 puits d'environ 10 µl de volume sont formés dans la "sous-couche" à l'aide d'un embout de pipette stérile de 10 ml. Ces puits sont remplis avec une série de dilutions des pseudopeptides à tester (concentration initiale 500 µg/ml, et dilution de deux en deux jusqu'à 1,95 µg/ml). Après diffusion à température ambiante pendant 2h, une gélose dite "sur-couche" (Agarose 1% wt/vol; Trypcase 6 % wt/vol; Tampon phosphate 10 mM pH7.4) est ajoutée sur la sous-couche à raison de 5 à 10 ml. Après solidification, l'ensemble est mis à incuber pendant une nuit. Le diamètre d'inhibition de la culture bactérienne autour de chaque puits est mesuré en mm; il existe une relation linéaire entre le diamètre d'inhibition et le log10 de la concentration en pseudopeptide qui permet de déterminer par extrapolation la valeur de la CMI.
Une première série de résultats a été obtenue en utilisant le test en boîte de Pétri vis-à-vis de bactéries non pathogènes issues de la collection de Travaux pratiques du laboratoire de Pathologie Comparée de l'Université de Montpellier (France). Dans cette série, les pseudopeptides des pics 5, 7, 8,10 et 11 ont été testés (Tableau 4).

Klebsiella pneumoniae = test: as above; conditions: MIC extrapolated from inhibition diameter vs log10 concentration
[2] = test system: Proteus vulgaris CIP58.60; test: as above; conditions: MIC extrapolated from inhibition diameter vs log10 concentration
Serratia entomophila = test: as above; conditions: MIC extrapolated from inhibition diameter vs log10 concentration
Staphylococcus aureus = test: as above; conditions: MIC extrapolated from inhibition diameter vs log10 concentration
[3] = test system: Staphylococcus epidermidis; test: as above; conditions: MIC extrapolated from inhibition diameter vs log10 concentration
Streptococcus Gr. D = test: as above; conditions: MIC extrapolated from inhibition diameter vs log10 concentration
Pseudomonas fluorescens = test: as above; conditions: MIC extrapolated from inhibition diameter vs log10 concentration
Bacillus megaterium = test: as above; conditions: MIC extrapolated from inhibition diameter vs log10 concentration

What does the source list for “Composé 5: pseudopeptide du pic n° 5 (HPLC, Figure 1) de Xenorhabdus nematophilus F1; Famille 1: Lys Lys Lys Lys Lys Gly; 1052 Da (KKKKKG; also: pseudopeptide modifications)”?
pourcentage d'inhibition de croissance (Alternaria brassicae; 10 ppm): 82%; pourcentage d'inhibition de croissance (Alternaria brassicae; 20 ppm): 84%; pourcentage d'inhibition de croissance (Alternaria brassicae; 40 ppm): 83%; pourcentage d'inhibition de croissance (Botrytis cinerea sp; 10 ppm): 38%; pourcentage d'inhibition de croissance (Botrytis cinerea sp; 20 ppm): 95%; pourcentage d'inhibition de croissance (Botrytis cinerea sp; 40 ppm): 95%; pourcentage d'inhibition de croissance (Botrytis cinerea myc; 10 ppm): 21%; pourcentage d'inhibition de croissance (Botrytis cinerea myc; 20 ppm): 34%; pourcentage d'inhibition de croissance (Botrytis cinerea myc; 40 ppm): 60%; pourcentage d'inhibition de croissance (Cladosporium sp; 10 ppm): 94%; pourcentage d'inhibition de croissance (Cladosporium sp; 20 ppm): 94%; pourcentage d'inhibition de croissance (Cladosporium sp; 40 ppm): 94%; pourcentage d'inhibition de croissance (Cladosporium myc; 10 ppm): 89%; pourcentage d'inhibition de croissance (Cladosporium myc; 20 ppm): 90%; pourcentage d'inhibition de croissance (Cladosporium myc; 40 ppm): 89%; pourcentage d'inhibition de croissance ([1]; 10 ppm): 70%; pourcentage d'inhibition de croissance ([1]; 20 ppm): 91%; pourcentage d'inhibition de croissance ([1]; 40 ppm): 95%; pourcentage d'inhibition de croissance (Rhizoctonia solani myc; 10 ppm): 9.7%; pourcentage d'inhibition de croissance (Rhizoctonia solani myc; 20 ppm): 85%; pourcentage d'inhibition de croissance (Rhizoctonia solani myc; 40 ppm): 93%; pourcentage d'inhibition de croissance (Fusarium culmorum sp; 10 ppm): 96%; pourcentage d'inhibition de croissance (Fusarium culmorum sp; 20 ppm): 96%; pourcentage d'inhibition de croissance (Fusarium culmorum sp; 40 ppm): 96%; pourcentage d'inhibition de croissance (Phytophthora myc; 10 ppm): 79%; pourcentage d'inhibition de croissance (Phytophthora myc; 20 ppm): 78%; pourcentage d'inhibition de croissance (Phytophthora myc; 40 ppm): 77%; pourcentage d'inhibition de croissance (Piricularia oryzae sp; 10 ppm): 18%; pourcentage d'inhibition de croissance (Piricularia oryzae sp; 20 ppm): 22%; pourcentage d'inhibition de croissance (Piricularia oryzae sp; 40 ppm): 45%; pourcentage d'inhibition de croissance (Septoria tritici sp; 10 ppm): 88%; pourcentage d'inhibition de croissance (Septoria tritici sp; 20 ppm): 88%; pourcentage d'inhibition de croissance (Septoria tritici sp; 40 ppm): 85%; CMI (Escherichia coli CIP548): 15 µg/mL; CMI (Salmonella sp.): 30 µg/mL; CMI (Klebsiella pneumoniae): 30 µg/mL; CMI [2]: 200 µg/mL; CMI (Serratia entomophila): 60 µg/mL; CMI (Staphylococcus aureus): 7,5 µg/ml; CMI [3]: 30 µg/mL; CMI (Streptococcus Gr. D): 200 µg/mL; CMI (Pseudomonas fluorescens): 3 µg/mL; CMI (Bacillus megaterium): 0,75 µg/ml
